Assay results taken from ChEMBL document CHEMBL1201862, “PubChem BioAssay data set” (2004).
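All cell lines were grown in 96-well plates and treated with compound for 48 hours. GI50 is the concentration that inhibits growth by half.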 The source made the active and inactive calls. Rule as the data show it: active = GI50 up to about 1.1 µM and inactive = higher.

What was measured:
Assay in all cases: growth of human tumour cells (NCI), 48 h
Malme-3M = tested on: Malme-3M
UACC-257 = tested on: UACC-257
SF-268 = tested on: SF-268
OVCAR-5 = tested on: OVCAR-5
CCRF-CEM = tested on: CCRF-CEM
SNB-75 = tested on: SNB-75
SF-539 = tested on: SF-539
DMS-273 = tested on: DMS-273
SN12C = tested on: SN12C
KM12 = tested on: KM12
HL-60 = tested on: HL-60
EKVX = tested on: EKVX
MOLT-4 = tested on: MOLT-4
NCI-H226 = tested on: NCI-H226
HCC 2998 = tested on: HCC 2998
K562 = tested on: K562
786-0 = tested on: 786-0
MDA-N = tested on: MDA-N
MDA-MB-231 = tested on: MDA-MB-231
BT-549 = tested on: BT-549

`O=C1CCC(=O)C1=NNc1cc(Cl)cc(Cl)c1` was tested, and the GI50 (Malme-3M) was > 100 µM (inactive), the GI50 (UACC-257) was > 100 µM (inactive) and the GI50 (SF-268) was > 100 µM (inactive). The GI50 (OVCAR-5) was > 100 µM (inactive), the GI50 (CCRF-CEM) was 47.8 µM (inactive) and the GI50 (SNB-75) was > 100 µM (inactive). The GI50 (SF-539) was > 100 µM (inactive), the GI50 (DMS-273) was > 100 µM (inactive) and the GI50 (SN12C) was > 100 µM (inactive). For the same molecule, the GI50 (KM12) was > 100 µM (inactive), the GI50 (HL-60) was 63.5 µM (inactive) and the GI50 (EKVX) was > 100 µM (inactive). The GI50 (MOLT-4) was 53.8 µM (inactive), the GI50 (NCI-H226) was > 100 µM (inactive) and the GI50 (HCC 2998) was > 100 µM (inactive). The GI50 (K562) was > 100 µM (inactive) and the GI50 (786-0) was > 100 µM (inactive).

`CNC1C(O)CC(OC2C/C=C(\C)C/C(C)=C/C=C/CCC(C)CNC(=O)/C=C/C=C/C2C)OC1C` (stereo unspecified) was tested, and the GI50 (Malme-3M) was 1.47 µM (inactive), the GI50 (UACC-257) was 0.667 µM (active) and the GI50 (SF-268) was 0.746 µM (active). For the same molecule, the GI50 (OVCAR-5) was 1.18 µM (inactive), the GI50 (CCRF-CEM) was 0.153 µM (active) and the GI50 (SNB-75) was 0.711 µM (active). The GI50 (MDA-N) was 0.34 µM (active), the GI50 (SF-539) was 0.918 µM (active) and the GI50 (MDA-MB-231) was 0.841 µM (active). For the same molecule, the GI50 (DMS-273) was 0.188 µM (active), the GI50 (SN12C) was 0.82 µM (active) and the GI50 (KM12) was 0.432 µM (active). The GI50 (HL-60) was 0.153 µM (active), the GI50 (EKVX) was 1.6 µM (inactive) and the GI50 (MOLT-4) was 0.161 µM (active). For the same molecule, the GI50 (NCI-H226) was 2.77 µM (inactive), the GI50 (HCC 2998) was 0.286 µM (active) and the GI50 (K562) was 0.0995 µM (active). The GI50 (786-0) was 0.245 µM (active) and the GI50 (BT-549) was 1.25 µM (inactive).

For `NC(=O)NNC(=O)NC12CC3CC(CC(C3)C1)C2`, the GI50 (Malme-3M) was > 100 µM (inactive), the GI50 (UACC-257) was > 100 µM (inactive) and the GI50 (SF-268) was > 100 µM (inactive). For the same molecule, the GI50 (OVCAR-5) was > 100 µM (inactive), the GI50 (CCRF-CEM) was > 100 µM (inactive) and the GI50 (SNB-75) was > 100 µM (inactive). For the same molecule, the GI50 (SF-539) was > 100 µM (inactive), the GI50 (DMS-273) was > 100 µM (inactive) and the GI50 (SN12C) was > 100 µM (inactive). For the same molecule, the GI50 (KM12) was > 100 µM (inactive), the GI50 (HL-60) was > 100 µM (inactive) and the GI50 (EKVX) was > 100 µM (inactive). The GI50 (MOLT-4) was > 100 µM (inactive), the GI50 (NCI-H226) was > 100 µM (inactive) and the GI50 (HCC 2998) was > 100 µM (inactive). For the same molecule, the GI50 (K562) was > 100 µM (inactive) and the GI50 (786-0) was > 100 µM (inactive).

With `CC(/C=C/C(=O)c1sc(C(N)=S)nc1C)=C\c1ccccc1` the GI50 (Malme-3M) was > 100 µM (inactive), the GI50 (UACC-257) was > 100 µM (inactive) and the GI50 (SF-268) was > 100 µM (inactive). For the same molecule, the GI50 (OVCAR-5) was > 100 µM (inactive), the GI50 (CCRF-CEM) was 58.2 µM (inactive) and the GI50 (SNB-75) was > 100 µM (inactive). The GI50 (SF-539) was > 100 µM (inactive), the GI50 (DMS-273) was 20 µM (inactive) and the GI50 (SN12C) was > 100 µM (inactive). For the same molecule, the GI50 (KM12) was > 100 µM (inactive), the GI50 (HL-60) was > 100 µM (inactive) and the GI50 (EKVX) was > 100 µM (inactive). The GI50 (MOLT-4) was > 100 µM (inactive), the GI50 (NCI-H226) was > 100 µM (inactive) and the GI50 (HCC 2998) was > 100 µM (inactive). The GI50 (K562) was > 100 µM (inactive) and the GI50 (786-0) was > 100 µM (inactive).

For `COC(=O)/C=C(\C(=O)OC)c1c2c3c(cc(OC)c(OC)c3c3ccccc13)CCN2C`, the GI50 (Malme-3M) was 33.7 µM (inactive), the GI50 (UACC-257) was 30.5 µM (inactive) and the GI50 (SF-268) was > 100 µM (inactive). For the same molecule, the GI50 (OVCAR-5) was > 100 µM (inactive), the GI50 (CCRF-CEM) was 24 µM (inactive) and the GI50 (SNB-75) was 66.8 µM (inactive). For the same molecule, the GI50 (SF-539) was 27.5 µM (inactive), the GI50 (DMS-273) was 22.6 µM (inactive) and the GI50 (SN12C) was 58.6 µM (inactive). The GI50 (KM12) was 36.1 µM (inactive), the GI50 (HL-60) was 17.9 µM (inactive) and the GI50 (EKVX) was 64.6 µM (inactive). For the same molecule, the GI50 (MOLT-4) was 24.1 µM (inactive), the GI50 (NCI-H226) was 29.6 µM (inactive) and the GI50 (HCC 2998) was 33.7 µM (inactive). For the same molecule, the GI50 (K562) was 26.2 µM (inactive) and the GI50 (786-0) was 70.8 µM (inactive).

For `COc1cc2c(oc(=O)c3c4oc([Si](C)(C)C)cc4cc(OC)c23)c2cccc(O)c12`, the GI50 (Malme-3M) was > 100 µM (inactive), the GI50 (UACC-257) was > 100 µM (inactive) and the GI50 (SF-268) was > 100 µM (inactive). For the same molecule, the GI50 (OVCAR-5) was > 100 µM (inactive), the GI50 (CCRF-CEM) was > 100 µM (inactive) and the GI50 (SNB-75) was 36.4 µM (inactive). The GI50 (SF-539) was > 100 µM (inactive), the GI50 (DMS-273) was > 100 µM (inactive) and the GI50 (SN12C) was > 100 µM (inactive). The GI50 (KM12) was > 100 µM (inactive), the GI50 (HL-60) was > 100 µM (inactive) and the GI50 (EKVX) was > 100 µM (inactive). For the same molecule, the GI50 (MOLT-4) was > 100 µM (inactive), the GI50 (NCI-H226) was > 100 µM (inactive) and the GI50 (HCC 2998) was > 100 µM (inactive). For the same molecule, the GI50 (K562) was > 100 µM (inactive) and the GI50 (786-0) was > 100 µM (inactive).

For `COc1cc2[nH]c3c(c2cc1OC)CCN[C@]31CC[C@]2(CC3c4c(cc(OC)c(O)c42)CCN3C)C[C@H]1OC` (stereo partly specified), the GI50 (Malme-3M) was 21 µM (inactive), the GI50 (UACC-257) was 19.9 µM (inactive) and the GI50 (SF-268) was 25.5 µM (inactive). The GI50 (OVCAR-5) was 69.3 µM (inactive), the GI50 (CCRF-CEM) was 10.8 µM (inactive) and the GI50 (SNB-75) was 21.5 µM (inactive). For the same molecule, the GI50 (SF-539) was 17.1 µM (inactive), the GI50 (DMS-273) was 2 µM (inactive) and the GI50 (SN12C) was 21 µM (inactive). For the same molecule, the GI50 (KM12) was 17.7 µM (inactive), the GI50 (HL-60) was 11.6 µM (inactive) and the GI50 (EKVX) was 55.7 µM (inactive). The GI50 (MOLT-4) was 12.9 µM (inactive), the GI50 (NCI-H226) was 45.5 µM (inactive) and the GI50 (HCC 2998) was 15.2 µM (inactive). The GI50 (K562) was 11.6 µM (inactive) and the GI50 (786-0) was 15.7 µM (inactive).

In the case of `CC(C)CC12CC3CCC(CNC1=O)C32C` (stereo unspecified), the GI50 (Malme-3M) is reported as > 100 µM (inactive), the GI50 (UACC-257) is reported as > 100 µM (inactive) and the GI50 (SF-268) is reported as > 100 µM (inactive). For the same molecule, the GI50 (OVCAR-5) was 96.8 µM (inactive), the GI50 (CCRF-CEM) was 35.5 µM (inactive) and the GI50 (SNB-75) was > 100 µM (inactive). The GI50 (SF-539) was > 100 µM (inactive), the GI50 (DMS-273) was > 100 µM (inactive) and the GI50 (SN12C) was > 100 µM (inactive). The GI50 (KM12) was > 100 µM (inactive), the GI50 (HL-60) was 31.9 µM (inactive) and the GI50 (EKVX) was > 100 µM (inactive). The GI50 (MOLT-4) was 40.5 µM (inactive), the GI50 (NCI-H226) was > 100 µM (inactive) and the GI50 (HCC 2998) was > 100 µM (inactive). For the same molecule, the GI50 (K562) was 43.5 µM (inactive) and the GI50 (786-0) was > 100 µM (inactive).

With `O=C1Cc2c([nH]c3ccccc23)-c2cc(Br)ccc2N1` the GI50 (Malme-3M) was > 100 µM (inactive), the GI50 (UACC-257) was > 100 µM (inactive) and the GI50 (SF-268) was > 100 µM (inactive). For the same molecule, the GI50 (OVCAR-5) was > 100 µM (inactive), the GI50 (CCRF-CEM) was > 100 µM (inactive) and the GI50 (SNB-75) was > 100 µM (inactive). The GI50 (SF-539) was > 100 µM (inactive), the GI50 (DMS-273) was > 100 µM (inactive) and the GI50 (SN12C) was > 100 µM (inactive). The GI50 (KM12) was > 100 µM (inactive), the GI50 (HL-60) was > 100 µM (inactive) and the GI50 (EKVX) was > 100 µM (inactive). For the same molecule, the GI50 (MOLT-4) was > 100 µM (inactive), the GI50 (NCI-H226) was > 100 µM (inactive) and the GI50 (HCC 2998) was > 100 µM (inactive). For the same molecule, the GI50 (K562) was > 100 µM (inactive) and the GI50 (786-0) was > 100 µM (inactive).
